Experimental data: patent US20090036448A1, “PYRIMIDINE DERIVATIVES AND METHODS OF TREATMENT RELATED TO THE USE THEREOF” (TAISHO PHARMECUTICAL CO., LTD., priority 2004, published 2009)
Structures can show the parent of a compound that is named as a salt.

The compounds below were run against T1, MCH receptor (Homo sapiens, UniProt Q99705) (assay: Receptor binding assay with Radiolabelled MCH Ligand). Details: class by percent of control at 10^-7 M or IC50.
T1 sequence (Q99705 whole entry): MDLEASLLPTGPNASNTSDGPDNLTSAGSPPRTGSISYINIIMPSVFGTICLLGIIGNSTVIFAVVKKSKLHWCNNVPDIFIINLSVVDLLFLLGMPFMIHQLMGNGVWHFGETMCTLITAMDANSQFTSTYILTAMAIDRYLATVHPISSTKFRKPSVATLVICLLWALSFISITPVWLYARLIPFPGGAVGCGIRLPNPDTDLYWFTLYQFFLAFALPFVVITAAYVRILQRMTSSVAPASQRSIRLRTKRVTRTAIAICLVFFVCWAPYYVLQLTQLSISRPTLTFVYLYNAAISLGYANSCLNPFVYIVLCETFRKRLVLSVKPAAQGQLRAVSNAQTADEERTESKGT
Parameters: expressed in transfected cells; host or cells: 293 cells (human kidney, ATCC), transient transfection; crude membranes
Procedure, shortened: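 This was a filtration radioligand displacement assay: compounds, first tested at 1 and 0.1 μM and then over a range, inhibited binding of a labelled MCH ligand to transfected 293-cell membranes at room temperature for 60–120 min. Specific binding excluded a cold-MCH nonspecific signal. Ki was derived from IC50 via Cheng-Prusoff, using an independently measured KD.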
With COc1cccc(S(=O)(=O)N[C@H]2CC[C@@H](Nc3cc(N(C)C)nc(C)n3)CC2)c1 [compound 493] the class was 3 (Class 3: The value of percent of control at 10^−7 M was more than 60% or the value of IC50 was more than 200 nM.). CCCCOc1ccc(S(=O)(=O)N[C@H]2CC[C@@H](Nc3cc(N(C)C)nc(C)n3)CC2)cc1 [compound 494] was tested, and the class was 3 (Class 3: The value of percent of control at 10^−7 M was more than 60% or the value of IC50 was more than 200 nM.). With Cc1nc(N[C@H]2CC[C@@H](NS(=O)(=O)c3cc(Cl)c(Oc4ccc([N+](=O)[O-])cc4Cl)c(Cl)c3)CC2)cc(N(C)C)n1 [compound 495] the class was 3 (Class 3: The value of percent of control at 10^−7 M was more than 60% or the value of IC50 was more than 200 nM.). In the case of Cc1nc(N[C@H]2CC[C@@H](NS(=O)(=O)c3ccc(Oc4ccccc4)cc3)CC2)cc(N(C)C)n1 [compound 496], the class is reported as 3 (Class 3: The value of percent of control at 10^−7 M was more than 60% or the value of IC50 was more than 200 nM.). Cc1nc(N[C@H]2CC[C@@H](NS(=O)(=O)c3ccc(Oc4ncc(C(F)(F)F)cc4Cl)cc3)CC2)cc(N(C)C)n1 [compound 497] was tested, and the class was 3 (Class 3: The value of percent of control at 10^−7 M was more than 60% or the value of IC50 was more than 200 nM.). Cc1nc(N[C@H]2CC[C@@H](NS(=O)(=O)c3ccc(S(C)(=O)=O)cc3)CC2)cc(N(C)C)n1 [compound 498] was tested, and the class was 3 (Class 3: The value of percent of control at 10^−7 M was more than 60% or the value of IC50 was more than 200 nM.). With Cc1nc(N[C@H]2CC[C@@H](NS(=O)(=O)c3cccc(C#N)c3)CC2)cc(N(C)C)n1 [compound 499] the class was 3 (Class 3: The value of percent of control at 10^−7 M was more than 60% or the value of IC50 was more than 200 nM.). With Cc1nc(N[C@H]2CC[C@@H](NS(=O)(=O)c3cccc(Br)c3)CC2)cc(N(C)C)n1 [compound 500] the class was 3 (Class 3: The value of percent of control at 10^−7 M was more than 60% or the value of IC50 was more than 200 nM.). Cc1nc(N[C@H]2CC[C@@H](NS(=O)(=O)c3ccc(Br)cc3OC(F)(F)F)CC2)cc(N(C)C)n1 [compound 501] was tested, and the class was 3 (Class 3: The value of percent of control at 10^−7 M was more than 60% or the value of IC50 was more than 200 nM.). Cc1nc(N[C@H]2CC[C@@H](NS(=O)(=O)c3ccc(Cl)c(Cl)c3)CC2)cc(N(C)C)n1 [compound 502] was tested, and the class was 3 (Class 3: The value of percent of control at 10^−7 M was more than 60% or the value of IC50 was more than 200 nM.). In the case of Cc1nc(N[C@H]2CC[C@@H](NS(=O)(=O)c3cccc(F)c3)CC2)cc(N(C)C)n1 [compound 503], the class is reported as 3 (Class 3: The value of percent of control at 10^−7 M was more than 60% or the value of IC50 was more than 200 nM.). With Cc1nc(N[C@H]2CC[C@@H](NS(=O)(=O)c3cccc([N+](=O)[O-])c3)CC2)cc(N(C)C)n1 [compound 504] the class was 3 (Class 3: The value of percent of control at 10^−7 M was more than 60% or the value of IC50 was more than 200 nM.). With Cc1nc(N[C@H]2CC[C@@H](NS(=O)(=O)c3cccc4ccccc34)CC2)cc(N(C)C)n1 [compound 505] the class was 3 (Class 3: The value of percent of control at 10^−7 M was more than 60% or the value of IC50 was more than 200 nM.). CCOC(=O)c1c(S(=O)(=O)N[C@H]2CC[C@@H](Nc3cc(N(C)C)nc(C)n3)CC2)c(-c2ccccc2)n(-c2ccccc2)c1C [compound 506] was tested, and the class was 3 (Class 3: The value of percent of control at 10^−7 M was more than 60% or the value of IC50 was more than 200 nM.). With COC(=O)c1ccc(S(=O)(=O)N[C@H]2CC[C@@H](Nc3cc(N(C)C)nc(C)n3)CC2)n1C [compound 507] the class was 3 (Class 3: The value of percent of control at 10^−7 M was more than 60% or the value of IC50 was more than 200 nM.). For COC(=O)c1cc(S(=O)(=O)N[C@H]2CC[C@@H](Nc3cc(N(C)C)nc(C)n3)CC2)oc1C [compound 508], the class was 3 (Class 3: The value of percent of control at 10^−7 M was more than 60% or the value of IC50 was more than 200 nM.). In the case of Cc1nc(N[C@H]2CC[C@@H](NS(=O)(=O)c3ccc4c(c3)CN(C(=O)C(F)(F)F)CC4)CC2)cc(N(C)C)n1 [compound 509], the class is reported as 3 (Class 3: The value of percent of control at 10^−7 M was more than 60% or the value of IC50 was more than 200 nM.). With Cc1nc(N[C@H]2CC[C@@H](NS(=O)(=O)c3ccc(Cc4ncc(C(F)(F)F)cc4Cl)s3)CC2)cc(N(C)C)n1 [compound 510] the class was 3 (Class 3: The value of percent of control at 10^−7 M was more than 60% or the value of IC50 was more than 200 nM.). In the case of Cc1nc(N[C@H]2CC[C@@H](NS(=O)(=O)c3sc4ccc(Cl)cc4c3C)CC2)cc(N(C)C)n1 [compound 511], the class is reported as 3 (Class 3: The value of percent of control at 10^−7 M was more than 60% or the value of IC50 was more than 200 nM.). With Cc1nc(N[C@H]2CC[C@@H](NS(=O)(=O)c3c(C)noc3C)CC2)cc(N(C)C)n1 [compound 512] the class was 3 (Class 3: The value of percent of control at 10^−7 M was more than 60% or the value of IC50 was more than 200 nM.). For Cc1nc(N[C@H]2CC[C@@H](NS(=O)(=O)c3c(C)nn(C)c3C)CC2)cc(N(C)C)n1 [compound 513], the class was 3 (Class 3: The value of percent of control at 10^−7 M was more than 60% or the value of IC50 was more than 200 nM.). In the case of CCOC(=O)c1c(S(=O)(=O)N[C@H]2CC[C@@H](Nc3cc(N(C)C)nc(C)n3)CC2)c(-c2ccc(Cl)cc2)n(-c2ccccc2)c1C [compound 514], the class is reported as 3 (Class 3: The value of percent of control at 10^−7 M was more than 60% or the value of IC50 was more than 200 nM.). With Cc1nc(N[C@H]2CC[C@@H](NS(=O)(=O)c3ccc(-c4cc(C(F)(F)F)nn4C)s3)CC2)cc(N(C)C)n1 [compound 515] the class was 3 (Class 3: The value of percent of control at 10^−7 M was more than 60% or the value of IC50 was more than 200 nM.). In the case of Cc1nc(N[C@H]2CC[C@@H](NS(=O)(=O)c3cccn3-c3ncc(C(F)(F)F)cc3Cl)CC2)cc(N(C)C)n1 [compound 516], the class is reported as 3 (Class 3: The value of percent of control at 10^−7 M was more than 60% or the value of IC50 was more than 200 nM.). With Cc1nc(N[C@H]2CC[C@@H](NS(=O)(=O)c3ccc(-c4ccon4)s3)CC2)cc(N(C)C)n1 [compound 517] the class was 3 (Class 3: The value of percent of control at 10^−7 M was more than 60% or the value of IC50 was more than 200 nM.). For COC(=O)c1csc(S(=O)(=O)N[C@H]2CC[C@@H](Nc3cc(N(C)C)nc(C)n3)CC2)c1OC [compound 518], the class was 3 (Class 3: The value of percent of control at 10^−7 M was more than 60% or the value of IC50 was more than 200 nM.). With Cc1nc(N[C@H]2CC[C@@H](NS(=O)(=O)c3cc(S(=O)(=O)c4ccccc4)cs3)CC2)cc(N(C)C)n1 [compound 519] the class was 3 (Class 3: The value of percent of control at 10^−7 M was more than 60% or the value of IC50 was more than 200 nM.). Cc1nc(N[C@H]2CC[C@@H](NS(=O)(=O)c3ccc(Br)s3)CC2)cc(N(C)C)n1 [compound 520] was tested, and the class was 3 (Class 3: The value of percent of control at 10^−7 M was more than 60% or the value of IC50 was more than 200 nM.). For Cc1nc(N[C@H]2CC[C@@H](NS(=O)(=O)c3ccc(Cl)c4nonc34)CC2)cc(N(C)C)n1 [compound 521], the class was 3 (Class 3: The value of percent of control at 10^−7 M was more than 60% or the value of IC50 was more than 200 nM.). For Cc1nc(N[C@H]2CC[C@@H](NS(=O)(=O)c3cccc4cccnc34)CC2)cc(N(C)C)n1 [compound 522], the class was 3 (Class 3: The value of percent of control at 10^−7 M was more than 60% or the value of IC50 was more than 200 nM.).

The compounds below were run against T1, MCH receptor (assay: FLIPR/FDSS6000 functional assay: intracellular Ca2+ changes evoked by MCH). Details: class by percent of control at 10^−7 M or by IC50; antagonist activity, 50 nM of MCH; read-out: class.
Type: cell-based
From the text: Subsequently, a functional based assay was used to confirm the lead hits, referred to as FLIPR™ (the Fluorometric Imaging Plate Reader) and FDSS6000™ (Functional Drug Screening System). This assay utilized a non-endogenous, constitutively active version of the MCH receptor.
The FLIPR and FDSS assays are able to detect intracellular Ca^2+ concentration in cells, which can be utilized to assess receptor activation and determine whether a candidate compound is an, for example, antagonist, inverse agonist or agonist to a Gq-coupled receptor. The concentration of free Ca^2+ in the cytosol of any cell is extremely low, whereas its concentration in the extracellular fluid and endoplasmic reticulum (ER) is very high. Thus, there is a large gradient tending to drive Ca^2+ into the cytosol across both the plasma membrane and ER. The FLIPR™ and FDSS6000™ systems (Molecular Devices Corporation, HAMAMATSU Photonics K.K.) are designed to perform functional cell-based assays, such as the measurement of intracellular calcium for high-throughput screening. The measurement of fluorescent is associated with calcium release upon activation of the Gq-coupled receptors.
Fluorometric Imaging Plate Reader system was used to allow for rapid, kinetic measurements of intracellular fluorescence in 96 well microplates (or 384 well microplates). Simultaneous measurements of fluorescence in all wells can be made by FLIPR or FDSS6000™ every second with high sensitivity and precision. These systems are ideal for measuring cell-based functional assays such as monitoring the intracellular calcium fluxes that occur within seconds after activation of the Gq coupled receptor.
Briefly, the cells are seeded into 96 well at 5.5×10^4 cells/well with complete culture media (Dulbecco's Modified Eagle Medium with 10% fetal bovine serum, 2 mM L-glutamine, 1 mM sodium pyruvate and 0.5 mg/mL G418, pH 7.4) for the assay next day. On the day of assay, the media is removed and the cells are incubated with 100 μl of loading buffer (4 μM Fluo-4-AM in complete culture media containing 2.5 mM Probenicid, 0.5 mg/ml and 0.2% bovine serum albumin) in 5% CO2 incubator at 37° C. for 1 hr. The loading buffer is removed, and the cells are washed with wash buffer (Hank's Balanced Salt Solution containing 2.5 mM Probenicid, 20 mM HEPES, 0.5 mg/mL and 0.2% bovine serum albumin, pH 7.4). One hundred fifty μl of wash buffer containing various concentrations of test compound is added to the cells, and the cells are incubated in 5% CO2 incubator at 37° C. for 30 min. Fifty μl of wash buffer containing various concentration of MCH are added to each well, and transient changes in [Ca^2+]i evoked by MCH are monitored using the FLIPR or FDSS in 96 well plates at Ex. 488 nm and Em. 530 nm for 290 second. When antagonist activity of compound is tested, 50 nM of MCH is used.
Use of FLIPR™ and FDSS6000™ can be accomplished by following manufacturer's instruction (Molecular Device Corporation and HAMAMATSU Photonics K.K.).
CN(C)c1cc(N[C@H]2CC[C@@H](NCc3ccc(Br)cc3OC(F)(F)F)CC2)ncn1 [Example 1, N′-(cis-4-{[4-Bromo-2-(trifluoromethoxy)benzyl]amino}cyclohexyl)-N,N-dimethylpyrimidine-4,6-diamine dihydrochloride] was tested, and the IC50 was > 0.2 µM.
